The values that follow come from patent US20040167097A1, “EPO D + 5-FU/gemcitabine” (priority 2002, published 2004).

For data set [1] the following is noted: comparison value for paclitaxel; cited from earlier work.
Data set [2] in a line: Pharmacokinetics after infusion. The data set is classed as in vivo. The text has this: In general, the pharmacokinetics are favorable. […] This is somewhat higher on average than the values for paclitaxel which are 140±70 l.
In data set [3] the test system is paclitaxel-sensitive and paclitaxel-resistant cell lines and xenographs. To be noted: cited from earlier work.
For data set [4], the system named is thymidine phosphorylase. Nature of the data set: Production of thymidine phosphorylase in tumor cells. The data set is classed as cell-based. The settings on record: some tumor cells; preliminary experiments.
Protocol: The data from each of the combination analyses was analyzed using [sequence] software (Biosoft, Cambridge, UK), which determined a combination index (“CI”) value for each combination in each of the three cell lines examined.
For data set [5], the system named is tumor. The settings on record: mice; Chou, et al. 2001; cited from earlier work.

The structures appear in SMILES notation. Read-outs that look alike come from different tables or passages of the source.

In the case of `CC(=O)O[C@H]1C(=O)[C@@]2(C)[C@H]([C@H](OC(=O)c3ccccc3)[C@]3(O)C[C@H](OC(=O)[C@H](O)[C@@H](NC(=O)c4ccccc4)c4ccccc4)C(C)=C1C3(C)C)[C@]1(OC(C)=O)CO[C@@H]1C[C@@H]2O` [paclitaxel], the “volume of distribution (Vz)” value in data set [1] was 140 ± 70 L.

On to `C/C1=C/C[C@@H](/C(C)=C/c2csc(C)n2)OC(=O)C[C@H](O)C(C)(C)C(=O)[C@H](C)[C@@H](O)[C@@H](C)CCC1` [epothilone D, 12,13-deoxyepothilone B], for which, in data set [2] (from 9 to 150 mg/m^2), the “dependence of AUC on dosage” value is listed as “linear”. In data set [2] (in vivo), the “dose dependence of pharmacokinetics” value was “not dose-dependent” and the “pharmacokinetic parameters, second infusion as compared to first infusion” value is reported as “do not change”. Further, in data set [2] (infusion), the “half-life, mean value” turned out to be 9.6 ± 2.2 h and the “volume of distribution (Vz)” value worked out at 172 ± 74 L. Further, in data set [3], the antitumor efficacy result was “has antitumor efficacy”. The “production of thymidine phosphorylase” value in data set [4] is recorded as “upregulate”. The antitumor effects entry in data set [5] was “dramatic antitumor effects”.
